Experimental findings from patent US7951827B2, “Synthesis and antiprotozoal activity of dicationic 3,5-diphenylisoxazoles” (The University of North Carolina at Chapel Hill, priority 2005, dated 2011) are described below.

In data set [1] the test system is Trypanosoma brucei brucei. As to the kind of experiment: In vitro antiprotozoal activity against Trypanosoma brucei brucei. To be noted: Trypanosoma brucei; for IC50: Table 1, read-out: IC50 (μM) Trypanosoma brucei brucei; for pIC50: read-out: IC50 values against T. brucei brucei. In kind it is cell-based. On the procedure: (§1) In vitro antiprotozoal activities, see Ismail, M. A., et al., J. Med. Chem. 46, 4761-4769 (2003), and cytotoxicity were measured following established protocols, see Balz, T., et al., EMBO J., 4, 1273-1277 (1985); Räz. B., et al., Acta Trop., 68:139-147 (1997); and Sperandeo, N. R. et al., Chem. Biochem., 4, 69-73 (2003). […] Other positive controls employed were melarsoprol (against T. brucei), chloroquine, and artemisinin (against P. falciparum), and podophyllotoxin (against VERO cells).

Data set [2] relates to Plasmodium falciparum. The data set is described as follows: In vitro antiprotozoal activity against Plasmodium falciparum. The class given is cell-based. To be noted: for IC50 / pIC50: Plasmodium falciparum; for IC50: Table 1, read-out: IC50 (μM) Plasmodium falciparum; for pIC50: read-out: antiplasmodial IC50 values (P. falciparum). On the procedure: as §1
Data set [3] can be described thus: Cytotoxicity to VERO cells. Conditions: African green monkey (Cercopithecus aethiops), IC50 (μM) Cytotoxicity VERO cells. In kind it is cell-based, African green monkey (Cercopithecus Aethiops). On the procedure: as §1
Data set [4] concerns VERO cells. The data set is described as follows: Cytotoxicity to VERO cells. To be noted: for pIC50: Chlorocebus sabaeus, Vero, read-out: IC50 value against VERO cells. In kind it is cell-based, African green monkey (Cercopithecus Aethiops). On the procedure: as §1

pIC50: −log10 of the molar value. Read-outs that look alike come from different tables or passages of the source. Bounds are passed on as bounds.

Take `COc1ccc(C(=N)N)cc1-c1cc(-c2ccc(C(=N)N)cc2[N+](=O)[O-])no1.Cl.Cl` [Compound 30, 5-(5-Amidino-2-methoxyphenyl)-3-(4-amidino-2-nitrophenyl)isoxazole dihydrochloride]: the melting point was 260 °C (dec.). Further, the half-inhibitory concentration (IC50) in data set [1] stood at 0.0342 µM. In addition, in data set [2], the IC50 came to 0.0195 µM and the pIC50 was 7.52 to 8.10. In data set [3], this compound returned a half-maximal inhibitory concentration (IC50) of 116 µM. Moreover, in data set [4], the pIC50 is less than 4.00.

Consider `COc1cc(C(=N)N)ccc1-c1cc(-c2cccc(C(=N)N)c2)on1.Cl.Cl` [Compound 29, 3-(4-Amidino-2-methoxyphenyl)-5-(3-amidinophenyl)isoxazole dihydrochloride], for which the melting point is 288 °C (dec.). Besides, in data set [1], the IC50 turned out to be 0.0059 µM and the pIC50 was 8.05 to 8.46. Also, in data set [2], the half-maximal inhibitory concentration (IC50) was 0.0089 µM and the pIC50 was 7.52 to 8.10. The same compound displayed an IC50 in data set [3] of 136 µM. For the same compound, the pIC50 in data set [4] was less than 4.00.

With `Cl.Cl.N=C(N)c1ccc(-c2cc(-c3cc(C(=N)N)ccc3[N+](=O)[O-])no2)cc1` [Compound 19, 3-(5-Amidino-2-nitrophenyl)-5-(4-amidinophenyl)isoxazole dihydrochloride], the melting point lay in the range of 238 to 240 °C. Also, in data set [1], the IC50 was 0.0512 µM. Besides, the IC50 in data set [2] turned out to be 0.0021 µM. The compound also came in with an IC50 in data set [3] of 5.07 µM. Further, in data set [4], the “toxicity (VERO cells) in words” value is “quite toxic”.

Take `Cl.Cl.N=C(N)c1cccc(-c2cc(-c3cc(C(=N)N)ccc3Cl)on2)c1` [Compound 36, 5-(5-Amidino-2-chlorophenyl)-3-(3-amidinophenyl)isoxazole dihydrochloride]: the melting point was 347 °C (dec.). In addition, the IC50 in data set [1] turned out to be 0.0251 µM. For the same compound, in data set [2], the IC50 was determined as 0.0163 µM and the negative logarithm of the IC50 (pIC50) is 7.52 to 8.10. In data set [3], this compound registered an IC50 of 109 µM. For the same compound, in data set [4], the “toxicity (VERO cells) in words” value is “low toxicity” and the pIC50 was less than 4.00.

Regarding `Cl.Cl.N=C(N)c1cccc(-c2cc(-c3cc(C(=N)N)ccc3[N+](=O)[O-])no2)c1` [Compound 38, 3-(5-Amidino-2-nitrophenyl)-5-(3-amidinophenyl)isoxazole dihydrochloride], the melting point is 220 °C (dec.). Besides, the IC50 in data set [1] is 0.085 µM. Besides, the IC50 in data set [2] was 0.104 µM. In data set [3], this compound came in with an IC50 of 177 µM. Besides, in data set [4], the “toxicity (VERO cells) in words” value is recorded as “low toxicity” and the pIC50 is less than 4.00.

Compound `CC(C)NC(=N)c1ccc(-c2cc(-c3cccc(C(=N)NC(C)C)c3)no2)cc1.Cl.Cl` [Compound 14, 3-[3-(N-Isopropyl)amidinophenyl]-5-[4-(N-isopropyl)amidinophenyl]-isoxazole dihydrochloride] displayed a melting point greater than 350 °C. Also, the IC50 in data set [1] amounted to 0.488 µM. Also, in data set [2], the “selectivities against P. falciparum over T. brucei brucei” value was 45 fold, the IC50 came out at 0.0106 µM and the negative-log IC50 (pIC50) is 7.52 to 8.10. In addition, the IC50 in data set [3] was found to be 187 µM. Further, in data set [4], the “toxicity (VERO cells) in words” value is given as “very nontoxic” and the pIC50 was less than 4.00.

With `CC(C)NC(=N)c1ccc(-c2cc(-c3cccc(C(=N)NC(C)C)c3)on2)cc1.Cl.Cl` [Compound 23, 3-[4-(N-Isopropyl)amidinophenyl]-5-[3-(N-isopropyl)amidinophenyl]-isoxazole dihydrochloride], the melting point was 340 to 343 °C (dec.). For the same compound, in data set [1], the IC50 was determined as 0.316 µM. Further, the IC50 in data set [2] stood at 0.0347 µM. In data set [3], half-maximal inhibition (IC50) required 186 µM. Besides, in data set [4], the “toxicity (VERO cells) in words” value was “very nontoxic” and the pIC50 is less than 4.00.

With `Cl.Cl.N=C(N)c1cccc(-c2cc(-c3cccc(C(=N)N)c3)on2)c1` [Compound 32, 3,5-Bis(3-amidinophenyl)isoxazole dihydrochloride], the melting point lay in the range of 365 to 367 °C. In data set [1], the IC50 came to 0.029 µM and the negative logarithm of the IC50 (pIC50) was 7.54. Further, in data set [2], the IC50 is 0.0092 µM and the negative-log IC50 (pIC50) is 7.52 to 8.10. The same compound gave an IC50 in data set [3] of 153 µM. Further, in data set [4], the “toxicity (VERO cells) in words” value was “low toxicity” and the pIC50 was less than 4.00.

On to `CC(C)NC(=N)c1cccc(-c2cc(-c3cccc(C(=N)NC(C)C)c3)on2)c1.Cl.Cl` [Compound 33, 3,5-Bis[3-(N-isopropyl)amidinophenyl]isoxazole dihydrochloride], for which the melting point was 260 °C (dec.). For the same compound, the IC50 in data set [1] came to 4.98 µM. The IC50 in data set [2] worked out at 0.0431 µM. In data set [3], the IC50 is 180 µM. Also, in data set [4], the “toxicity (VERO cells) in words” value is on record as “very nontoxic” and the pIC50 was less than 4.00.
